According to patent US11084800B2 (Achillion Pharmaceuticals, Inc., priority 2017, dated 2021):
pIC50: −log10 of the molar value.

The compounds below were run against Human Factor D (Homo sapiens (Human), UniProt P00746) (assay: Human Factor D Assay). Conditions: Factor D inhibition, assay of Example 10; read-out: IC5 (Stars).
Format: biochemical
Procedure: The assay of Example 10 was used to determine the IC50's of the compounds. Other standard factor D inhibition assays are also available.
Human Factor D (purified from human serum, Complement Technology, Inc.) at 80 nM final concentration is incubated with test compound at various concentrations for 5 min at room temperature in 50 mM Tris, 1M NaCl, pH 7.5. A synthetic substrate Z-L-Lys-SBz and DTNB (Ellman's reagent) are added to final concentrations of 100 μM each. Absorbance at 405 nm (A405) is recorded at 30 second intervals for 30 min using a microplate spectrophotometer. IC50 values are calculated by nonlinear regression of complement Factor D reaction rates as a function of test compound concentration.

Chain of Human Factor D (P00746 26-253): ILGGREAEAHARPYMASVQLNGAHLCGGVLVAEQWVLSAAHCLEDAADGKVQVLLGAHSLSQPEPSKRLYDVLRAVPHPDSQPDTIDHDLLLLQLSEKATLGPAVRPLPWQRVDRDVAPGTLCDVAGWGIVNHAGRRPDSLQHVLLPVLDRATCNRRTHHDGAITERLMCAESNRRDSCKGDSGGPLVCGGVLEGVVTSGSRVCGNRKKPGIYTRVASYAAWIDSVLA

Structure (SMILES) | pIC50
Cc1ncc(-c2cc3c(C(N)=O)nn(CC(=O)N4[C@H](C(=O)Nc5nc(Br)c(F)cc5C)C[C@@]5(C)C[C@@H]45)c3c(C)n2)cn1 [Compound 431, 1-(2-((1R,3S,5R)-3-((6-bromo-5-fluoro-3-methylpyridin-2-yl)carbamoyl)-5-methyl-2-azabicyclo[3.1.0]hexan-2-yl)-2-oxoethyl)-7-methyl-5-(2-methylpyrimidin-5-yl)-1H-pyrazolo[3,4-c]pyridine-3-carboxamide] | > 6.00
CC(=O)c1nn(CC(=O)N2[C@H](C(=O)Nc3nc(Br)ccc3CC(C)C)C[C@@]3(C)C[C@@H]23)c2cnc(-c3cnc(C)nc3)cc12 [Compound 258, (1R,3S,5R)-2-(2-(3-acetyl-5-(2-methylpyrimidin-5-yl)-1H-pyrazolo[3,4-c]pyridin-1-yl)acetyl)-N-(6-bromo-3-isobutylpyridin-2-yl)-5-methyl-2-azabicyclo[3.1.0]hexane-3-carboxamide] | > 6.00
CC(=O)c1nn(CC(=O)N2[C@H](C(=O)Nc3nc(Br)ccc3C)C[C@@]3(Cc4nnc(C)o4)C[C@@H]23)c2c(CF)cc(-c3cnc(C)nc3)cc12 [Compound 429, (1R,3S,5R)-2-(2-(3-acetyl-7-(fluoromethyl)-5-(2-methylpyrimidin-5-yl)-1H-indazol-1-yl)acetyl)-N-(6-bromo-3-methylpyridin-2-yl)-5-((5-methyl-1,3,4-oxadiazol-2-yl)methyl)-2-azabicyclo[3.1.0]hexane-3-carboxamide] | > 6.00
CC(=O)c1nn(CC(=O)N2[C@H](C(=O)Nc3nc(Br)c(F)cc3C)C[C@@]3(CN(C)C)C[C@@H]23)c2c(C)cc(-c3cnc(C)nc3)cc12 [Compound 263, (1R,3S,5R)-2-(2-(3-acetyl-7-methyl-5-(2-methylpyrimidin-5-yl)-1H-indazol-1-yl)acetyl)-N-(6-bromo-5-fluoro-3-methylpyridin-2-yl)-5-((dimethylamino)methyl)-2-azabicyclo[3.1.0] hexane-3-carboxamide] | > 6.00
CC(=O)c1cn(CC(=O)N2[C@H](C(=O)Nc3nc(Br)ccc3C)C[C@@]3(C)C[C@@H]23)c2cc(F)c(-c3cnc(C)nc3)cc12 [Compound 482, (1R,3S,5R)-2-(2-(3-acetyl-6-fluoro-5-(2-methylpyrimidin-5-yl)-1H-indol-1-yl)acetyl)-N-(6-bromo-3-methylpyridin-2-yl)-5-methyl-2-azabicyclo[3.1.0]hexane-3-carboxamide] | > 6.00
CC(=O)c1nn(CC(=O)N2[C@H](C(=O)Nc3nc(Br)ccc3C)C[C@@]3(CN4CCCC4)C[C@@H]23)c2c(CF)cc(-c3cnc(C)nc3)cc12 [Compound 351, (1R,3S,5R)-2-(2-(3-acetyl-7-(fluoromethyl)-5-(2-methylpyrimidin-5-yl)-1H-indazol-1-yl)acetyl)-N-(6-bromo-3-methylpyridin-2-yl)-5-(pyrrolidin-1-ylmethyl)-2-azabicyclo[3.1.0]hexane-3-carboxamide] | > 6.00
CC(=O)c1nn(CC(=O)N2[C@H](C(=O)Nc3cc(Cc4ccccc4)cc(Br)n3)C[C@@]3(C)C[C@@H]23)c2ccc(-c3cnc(C)nc3)cc12 [Compound 555, (1R,5R)-2-(2-(3-acetyl-5-(2-methylpyrimidin-5-yl)-1H-indazol-1-yl)acetyl)-N-(4-benzyl-6-bromopyridin-2-yl)-5-methyl-2-azabicyclo[3.1.0]hexane-3-carboxamide] | > 6.00
Cc1ncc(-c2cc3c(C(C)O)nn(CC(=O)N4[C@H](C(=O)Nc5nc(Br)ccc5C)C[C@@]5(C)C[C@@H]45)c3cn2)cn1 (stereo partly drawn) [Compound 402, (1R,3S,5R)-N-(6-bromo-3-methylpyridin-2-yl)-2-(2-(3-(1-hydroxyethyl)-5-(2-methylpyrimidin-5-yl)-1H-pyrazolo[3,4-c]pyridin-1-yl)acetyl)-5-methyl-2-azabicyclo[3.1.0]hexane-3-carboxamide] | 5.00 to 6.00
CC(=O)c1nn(CC(=O)N2[C@H](C(=O)Nc3cc(C#N)cc(Br)n3)C[C@@]3(C)C[C@@H]23)c2ccc(-c3cnc(C)nc3)cc12 [Compound 543, (1R,3S,5R)-2-(2-(3-acetyl-5-(2-methylpyrimidin-5-yl)-1H-indazol-1-yl)acetyl)-N-(6-bromo-4-cyanopyridin-2-yl)-5-methyl-2-azabicyclo[3.1.0]hexane-3-carboxamide] | > 6.00
CC(=O)c1nn(CC(=O)N2C[C@](F)(CF)C[C@H]2C(=O)Nc2nc(Br)ccc2C)c2ccc(-c3cnc(C)nc3)cc12 [Compound 422, (2S,4S)-1-(2-(3-acetyl-5-(2-methylpyrimidin-5-yl)-1H-indazol-1-yl)acetyl)-N-(6-bromo-3-methylpyridin-2-yl)-4-fluoro-4-(fluoromethyl)pyrrolidine-2-carboxamide] | > 6.00
Cc1ncc(-c2ccc3c(cnn3CC(=O)N3C[C@H](F)C[C@H]3C(=O)Nc3cccc(Br)n3)c2)cn1 [Compound 444, (2S,4R)-N-(6-bromopyridin-2-yl)-4-fluoro-1-(2-(5-(2-methylpyrimidin-5-yl)-1H-indazol-1-yl)acetyl)pyrrolidine-2-carboxamide] | 5.00 to 6.00

Same assay, conditions: Table 6; Factor D 80 nM, substrate Z-L-Lys-SBz; read-out: IC50

Structure (SMILES) | pIC50
CC(=O)c1nn(CC(=O)N2[C@H](C(=O)Nc3nc(Br)ccc3C)C[C@@]3(C(N)=O)C[C@@H]23)c2c(C)cc(-c3cnc(C)nc3)cc12 [Compound 173, (1R,3S,5S)-2-(2-(3-acetyl-7-methyl-5-(2-methylpyrimidin-5-yl)-1H-indazol-1-yl)acetyl)-N3-(6-bromo-3-methylpyridin-2-yl)-2-azabicyclo[3 .1.0]hexane-3,5-dicarboxamide] | < 5.00
CCc1cc(-c2cnc(C)nc2)cc2c(C(C)=O)nn(CC(=O)N3[C@H](C(=O)Nc4nc(Br)ccc4C)C[C@@]4(C)C[C@@H]34)c12 [Compound 47, (1R,3S,5R)-2-(2-(3-Acetyl-7-ethyl-5-(2-methylpyrimidin-5-yl)-1H-indazol-1-yl)acetyl)-N-(6-bromo-3-methylpyridin-2-yl)-5-methyl-2-azabicyclo[3.1.0]hexane-3-carboxamide] | > 6.00
COc1cccc(NC(=O)[C@@H]2C[C@@]3(C)C[C@H]3N2C(=O)Cn2nc(C(C)=O)c3cc(-c4cnc(C)nc4)cc(C)c32)n1 [Compound 82, (1R,3S,5R)-2-(2-(3-Acetyl-7-methyl-5-(2-methylpyrimidin-5-yl)-1H-indazol-1-yl)acetyl)-N-(6-methoxypyridin-2-yl)-5-methyl-2-azabicyclo[3.1.0]hexane-3-carboxamide] | > 6.00
Cc1ccc(Br)nc1NC(=O)[C@@H]1C[C@@]2(C)C[C@H]2N1C(=O)Cn1nc(-c2ccco2)cc1C(N)=O [Compound 213, (1R,3S,5R)—N-(6-Bromo-3-methylpyridin-2-yl)-2-(2-(5-carbamoyl-3-(furan-2-yl)-1H-pyrazol-1-yl)acetyl)-5-methyl-2-azabicyclo[3.1.0]hexane-3-carboxamide] | 5.00 to 6.00

Same assay, conditions: Table 8; Factor D 80 nM, substrate Z-L-Lys-SBz; read-out: IC50

Structure (SMILES) | pIC50
CC(=O)c1nn(CC(=O)N2[C@H](C(=O)Nc3nc(Br)ccc3C)C[C@@]3(CN(C)C)C[C@@H]23)c2c(C(F)(F)F)cc(-c3cnc(C)nc3)cc12 [Compound 318, (1R,3S,5R)-2-(2-(3-acetyl-5-(2-methylpyrimidin-5-yl)-7-(trifluoromethyl)-1H-indazol-1-yl)acetyl)-N-(6-bromo-3-methylpyridin-2-yl)-5-((dimethylamino)methyl)-2-azabicyclo[3.1.0]hexane-3-carboxamide] | > 6.00
CC(=O)c1nn(CC(=O)N2[C@H](C(=O)Nc3nc(Br)ccc3C)C[C@@]3(C)C[C@@H]23)c2c(C)cc(-c3cnc(CNC(=O)COCCOCCNC(=O)COCCOCCNC(=O)CC[C@H](NC(=O)CCCCCCCCCCCCCCCCC(=O)O)C(=O)O)nc3)cc12 [Compound 404] | > 6.00
